Laboratory results from the CheMixHub drug solubility set.

Test: xn = mol fraction of the nth substance listed, in the solute-free solvent

Nc1cccc2ccncc12 + CCCO + O
solubility (g/100 g solution)
Conditions | 278.15 K | 283.15 K | 288.15 K | 293.15 K | 298.15 K | 303.15 K | 308.15 K | 313.15 K | 318.15 K | 323.15 K
x2 = 0.03225 | 0.0813 | 0.0931 | 0.106 | 0.124 | 0.14 | 0.162 | 0.187 | 0.216 | 0.247 | 0.285
x2 = 0.06974 | 0.175 | 0.199 | 0.226 | 0.263 | 0.297 | 0.341 | 0.393 | 0.45 | 0.513 | 0.589
x2 = 0.1139 | 0.299 | 0.34 | 0.385 | 0.448 | 0.506 | 0.58 | 0.668 | 0.764 | 0.87 | 0.997
x2 = 0.1666 | 0.433 | 0.493 | 0.56 | 0.652 | 0.739 | 0.848 | 0.978 | 1.12 | 1.27 | 1.46
x2 = 0.2307 | 0.521 | 0.606 | 0.711 | 0.84 | 0.964 | 1.11 | 1.28 | 1.47 | 1.69 | 1.94
x2 = 0.3103 | 0.618 | 0.731 | 0.862 | 1.01 | 1.16 | 1.33 | 1.55 | 1.78 | 2.06 | 2.38
x2 = 0.4117 | 0.686 | 0.822 | 0.992 | 1.18 | 1.36 | 1.59 | 1.84 | 2.12 | 2.44 | 2.82
x2 = 0.5454 | 0.774 | 0.916 | 1.11 | 1.32 | 1.53 | 1.78 | 2.08 | 2.41 | 2.78 | 3.21
x2 = 0.7297 | 0.791 | 0.959 | 1.16 | 1.39 | 1.64 | 1.92 | 2.24 | 2.6 | 3.03 | 3.54

Nc1cccc2ccncc12 + CC(C)O + O
solubility (g/100 g solution)
Conditions | 278.15 K | 283.15 K | 288.15 K | 293.15 K | 298.15 K | 303.15 K | 308.15 K | 313.15 K | 318.15 K | 323.15 K
x2 = 0.03225 | 0.0706 | 0.0813 | 0.0925 | 0.109 | 0.123 | 0.142 | 0.165 | 0.191 | 0.218 | 0.252
x2 = 0.06974 | 0.141 | 0.163 | 0.184 | 0.215 | 0.244 | 0.279 | 0.323 | 0.372 | 0.424 | 0.489
x2 = 0.1139 | 0.235 | 0.271 | 0.306 | 0.357 | 0.405 | 0.463 | 0.534 | 0.617 | 0.702 | 0.808
x2 = 0.1666 | 0.339 | 0.393 | 0.445 | 0.519 | 0.59 | 0.676 | 0.78 | 0.902 | 1.03 | 1.18
x2 = 0.2307 | 0.393 | 0.466 | 0.559 | 0.658 | 0.767 | 0.883 | 1.02 | 1.18 | 1.36 | 1.58
x2 = 0.3103 | 0.5 | 0.587 | 0.696 | 0.819 | 0.952 | 1.09 | 1.26 | 1.47 | 1.68 | 1.95
x2 = 0.4117 | 0.573 | 0.687 | 0.826 | 0.98 | 1.13 | 1.3 | 1.5 | 1.75 | 2.02 | 2.35
x2 = 0.5454 | 0.633 | 0.765 | 0.915 | 1.08 | 1.25 | 1.46 | 1.7 | 1.97 | 2.3 | 2.69
x2 = 0.7297 | 0.576 | 0.73 | 0.906 | 1.1 | 1.31 | 1.58 | 1.84 | 2.16 | 2.51 | 2.94

CC(=O)Oc1cccc2c1C(=O)c1c(OC(C)=O)cc(C(=O)O)cc1C2=O + CCOC(C)=O + CC(C)O
solubility (g/100 g solution)
Conditions | 273.15 K | 278.15 K | 283.15 K | 288.15 K | 293.15 K | 298.15 K | 303.15 K | 308.15 K | 313.15 K
x2 = 0.07045 | 0.0064 | 0.00841 | 0.0107 | 0.014 | 0.0178 | 0.0215 | 0.0261 | 0.0309 | 0.0362
x2 = 0.1457 | 0.00881 | 0.0112 | 0.0142 | 0.0177 | 0.0216 | 0.0261 | 0.031 | 0.0367 | 0.0431
x2 = 0.2262 | 0.0102 | 0.0132 | 0.0164 | 0.0199 | 0.0246 | 0.0305 | 0.0368 | 0.0448 | 0.0539
x2 = 0.3126 | 0.0121 | 0.0158 | 0.0197 | 0.0245 | 0.0299 | 0.0359 | 0.0439 | 0.0522 | 0.062
x2 = 0.4055 | 0.0132 | 0.0175 | 0.0224 | 0.0279 | 0.0338 | 0.0406 | 0.0489 | 0.0583 | 0.069
x2 = 0.5057 | 0.0164 | 0.0205 | 0.0253 | 0.0305 | 0.0368 | 0.0435 | 0.0512 | 0.0598 | 0.0693
x2 = 0.6141 | 0.0209 | 0.026 | 0.0317 | 0.0375 | 0.0445 | 0.0521 | 0.0612 | 0.0702 | 0.0806
x2 = 0.7318 | 0.0254 | 0.0303 | 0.0368 | 0.0441 | 0.0516 | 0.06 | 0.0692 | 0.0796 | 0.0906
x2 = 0.8599 | 0.0219 | 0.0263 | 0.0318 | 0.0379 | 0.0443 | 0.0515 | 0.0599 | 0.0686 | 0.0779

O=C1CCC(C(=O)N2CSCC2C(=O)O)N1 (stereo unspecified) + CO + CCCCOC(C)=O
solubility (g/100 g solution)
Conditions | 278.15 K | 283.15 K | 288.15 K | 293.15 K | 298.15 K | 303.15 K | 308.15 K | 313.15 K | 318.15 K | 323.15 K
x2 = 0.2871 | 0.0109 | 0.0159 | 0.0239 | 0.0358 | 0.0528 | 0.0759 | 0.105 | 0.152 | 0.213 | 0.292
x2 = 0.4754 | 0.017 | 0.025 | 0.0349 | 0.0468 | 0.0628 | 0.0977 | 0.147 | 0.219 | 0.325 | 0.472
x2 = 0.6084 | 0.0271 | 0.0398 | 0.0597 | 0.0838 | 0.122 | 0.155 | 0.227 | 0.342 | 0.501 | 0.724
x2 = 0.7073 | 0.0401 | 0.065 | 0.104 | 0.162 | 0.249 | 0.378 | 0.564 | 0.832 | 1.2 | 1.68
x2 = 0.7838 | 0.0447 | 0.0729 | 0.117 | 0.184 | 0.287 | 0.432 | 0.65 | 0.964 | 1.4 | 1.95
x2 = 0.8446 | 0.0601 | 0.0995 | 0.148 | 0.234 | 0.363 | 0.542 | 0.949 | 1.23 | 1.59 | 2.33
x2 = 0.8943 | 0.635 | 0.752 | 0.898 | 0.997 | 1.19 | 1.36 | 1.59 | 1.88 | 2.15 | 2.57
x2 = 0.9355 | 0.674 | 0.824 | 0.969 | 1.11 | 1.26 | 1.5 | 1.8 | 2.04 | 2.4 | 2.85
x2 = 0.9703 | 0.793 | 0.937 | 1.12 | 1.28 | 1.52 | 1.75 | 2.06 | 2.36 | 2.82 | 3.31
